Assay results reported in patent EP4793271A1, “NEUROPROTECTIVE AGENT” (National Center of Neurology and Psychiatry, priority 2023, dated 2025).
Where two headings read alike, the source gives them in different places.

How the values were obtained:
[1] = molecular target: T1, hSARM1 (Homo sapiens, UniProt Q6SZW1); test: SARM1 inhibitory activity using recombinant SARM1 (PC6 base exchange fluorescence); type: biochemical; set-up: purchased BPS Bioscience; conditions: recombinant human SARM1 2 ng/µL; NMN 10 µM; NAD 1 mM; PC6 50 µM; result in words
T1 sequence (Q6SZW1 28-724): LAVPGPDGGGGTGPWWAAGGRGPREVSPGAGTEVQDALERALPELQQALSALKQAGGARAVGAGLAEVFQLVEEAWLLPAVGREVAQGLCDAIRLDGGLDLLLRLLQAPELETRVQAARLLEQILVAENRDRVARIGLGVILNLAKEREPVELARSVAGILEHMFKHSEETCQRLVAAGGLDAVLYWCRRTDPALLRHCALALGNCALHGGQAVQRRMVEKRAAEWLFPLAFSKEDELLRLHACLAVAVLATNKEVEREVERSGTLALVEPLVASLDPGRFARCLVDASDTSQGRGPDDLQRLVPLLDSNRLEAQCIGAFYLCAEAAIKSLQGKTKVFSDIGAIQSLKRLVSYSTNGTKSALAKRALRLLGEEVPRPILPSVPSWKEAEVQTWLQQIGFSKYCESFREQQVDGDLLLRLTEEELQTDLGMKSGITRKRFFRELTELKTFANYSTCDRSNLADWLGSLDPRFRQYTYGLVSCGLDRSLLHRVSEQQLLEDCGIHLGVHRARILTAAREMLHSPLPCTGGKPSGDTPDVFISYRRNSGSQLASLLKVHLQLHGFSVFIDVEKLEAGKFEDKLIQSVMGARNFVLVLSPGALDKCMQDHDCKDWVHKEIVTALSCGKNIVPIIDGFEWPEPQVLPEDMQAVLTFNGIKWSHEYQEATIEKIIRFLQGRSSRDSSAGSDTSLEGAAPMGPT
Description: The SARM1 inhibitory activity was evaluated by the following method using recombinant SARM1 from BPS Bioscience.
NMN, an endogenous activator for SARM1, was added at a final concentration of 10 µM to a reaction solution (composition: 40 mM HEPES-KOH (pH 7.4), 0.1% polyvinyl alcohol, and 110 mM potassium acetate) using a 96-well black plate. Subsequently, serial dilutions of the test compound and recombinant human SARM1 (final concentration: 2 ng/µL) were added thereto and preincubated at room temperature for 5 to 10 minutes. NAD and PC6 were added as substrates at final concentrations of 1 mM and 50 µM, respectively, to each well and incubated at room temperature for 1 hour, followed by fluorescent signal measurement using SpectraMax M2 (Molecular Devices) (excitation: 390 nm, fluorescence: 520 nm, fluorescence cutoff: 515 nm) (Li et al, eLife 2021 10: e67381). The fluorescent signal was normalized by using fluorescence intensity measured from a control group without addition of recombinant human SARM1 as a background whereas using fluorescence intensity measured from a control group supplemented with recombinant human SARM1 as the negative control, and plotted as the function of the test compound concentrations, and the compound was evaluated for its SARM1 inhibitory activity by calculating IC50.

[2] = mouse, in vivo
Description: Compound 35 was intravenously (iv: 1 mg/5 ml/kg) administered at a single dose to C57BL/6J male mice (about 10 weeks old (non-fasted), n = 3), and blood was collected 5, 15, and 30 minutes, and 1, 2, 4, 8, and 24 hours later. Likewise, compound 35 was orally (po: 10 mg/10 ml/kg) administered at a single dose to C57BL/6J male mice (about 10 weeks old (non-fasted), n = 3), and blood was collected 15 and 30 minutes, and 1, 2, 4, 8, and 24 hours later. Urine was collected from each mouse up to 24 hours after administration (pooled urine).

[3] = molecular target: T2, nicotinamide phosphoribosyl transferase (NAMPT) (Homo sapiens, UniProt P43490); test: NAMPT activity measurement (NMN fluorescence detection); type: biochemical; conditions: NAMPT recombinant protein, 10 µM Nam; for IC50: read-out: Evaluation on NAMPT inhibitory
T2 construct: purchased Medical & Biological Laboratories Co., Ltd. (MBL)
T2 sequence (P43490 whole entry, species assumed): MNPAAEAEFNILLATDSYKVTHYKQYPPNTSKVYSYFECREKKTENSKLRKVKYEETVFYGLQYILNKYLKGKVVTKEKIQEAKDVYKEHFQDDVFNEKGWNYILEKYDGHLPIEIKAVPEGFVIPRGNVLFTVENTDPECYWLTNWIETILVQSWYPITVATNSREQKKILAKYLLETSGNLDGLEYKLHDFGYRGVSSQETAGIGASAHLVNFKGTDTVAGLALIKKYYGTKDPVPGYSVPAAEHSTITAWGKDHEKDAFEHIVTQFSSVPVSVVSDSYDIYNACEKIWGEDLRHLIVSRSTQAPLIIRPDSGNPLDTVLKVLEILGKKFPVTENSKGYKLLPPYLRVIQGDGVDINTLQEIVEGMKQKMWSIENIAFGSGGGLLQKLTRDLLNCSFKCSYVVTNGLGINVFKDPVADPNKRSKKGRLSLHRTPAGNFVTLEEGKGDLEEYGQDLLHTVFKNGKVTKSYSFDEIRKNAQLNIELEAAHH
Method in brief: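 Recombinant NAMPT reacted with 10 µM Nam, 0.5 µM PRPP, 2 µM ATP in Tris pH 7.4 buffer with MgCl2, DTT, BSA; product NMN quantified by fluorescence (ex 421/em 480 nm) after derivatization with 2-acetylbenzofuran. Compounds at 3 nM–10 µM; control-normalized signal used for IC50.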

[4] = molecular target: T1, hSARM1; test: Human SARM1 activity measurement in HEK293 cells transiently transfected with ΔN-hSARM1 (PC6 fluorescent probe); type: cell-based; set-up: expressed in transfected cells; host or cells: HEK293, pcDNA3 expression vector
Method in brief: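 HEK293 cells in nicotinamide-free DMEM with 5 μM nicotinamide, transiently transfected with mitochondrial-targeting-deleted ΔN-hSARM1; PC6 base-exchange fluorescent probe (50 μM) plus compound (30 μM) added ~8 h post-transfection. Fluorescence (ex 405/em 525 nm) read ~48 h from transfection; inhibition % versus transfected DMSO control, untransfected background subtracted.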

[5] = test system: primary cultured cells of mouse fetus-derived dorsal root ganglia (DRGs); test: Suppression of axonal degeneration after axotomy in DRG explant culture; type: cell-based; conditions: minimum concentration at which axonal degeneration was suppressed (DI 0.3 or less), 24 hours after axotomy; for minimal effective concentration: Mus musculus, read-out: Evaluation on protection against degeneration
Method in brief: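 Embryonic ICR mouse DRG explants were cultured 7–8 days in nicotinamide-free neuronal medium with NGF, then axotomized by removing the cell bodies. Compound (100 pM–10 µM final, 0.1% DMSO) was added within 30 min, and neurites were imaged 24 h later. The result is the lowest concentration giving degeneration index ≤0.3.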

[6] = In vitro analysis of metabolite production with a UV (254 nm) chromatogram
[7] = inhibition rate, compound 30 µM, PC6 50 µM, HEK293 cells expressing ΔN-hSARM1, approximately 48 hours from transfection, read-out: Evaluation on hSARM1 inhibitory

SMILES	Evaluation on NAMPT inhibitory [3]	inhibition at 30 µM [4, 7]	minimal effective concentration [5]	other results
Nc1ncnc2c1ncn2[C@@H]1O[C@H](COP(=O)([O-])OP(=O)(O)OC[C@H]2O[C@@H]([n+]3cccc(C(=O)NCCCOCCOCCCNC(=O)c4cccnc4)c3)[C@H](O)[C@@H]2O)[C@@H](O)[C@H]1O [compound 35-NAD-like metabolite]				SARM1 inhibitory activity [1]: stronger activity than that of compound 35
O=C(NCCCOCCOCCCNC(=O)c1ccc[n+]([C@@H]2O[C@H](COP(=O)([O-])O)[C@@H](O)[C@H]2O)c1)c1cccnc1 [compound 35-NMN-like metabolite]				SARM1 inhibitory activity [1]: stronger activity than that of compound 35
CC(C)(C)C(=O)Nc1ccc(CNC(=O)c2ccc[n+]([C@@H]3O[C@H](COP(=O)(O)OP(=O)([O-])OC[C@H]4O[C@@H](n5cnc6c(N)ncnc65)[C@H](O)[C@@H]4O)[C@@H](O)[C@H]3O)c2)cn1 [compound 76-NAD-like metabolite]				SARM1 inhibitory activity [1]: stronger activity than that of compound 76
CC(C)(C)C(=O)Nc1ccc(CNC(=O)c2ccc[n+]([C@@H]3O[C@H](COP(=O)([O-])O)[C@@H](O)[C@H]3O)c2)cn1 [compound 76-NMN-like metabolite]				SARM1 inhibitory activity [1]: stronger activity than that of compound 76; metabolites detected in the plasma [2]: detected, albeit at a much lower concentration than that of compound 76
O=C(NCc1ccc(NC(=O)c2ccc(C(F)(F)F)cc2)nc1)c1cccnc1 [compound 83]	○	> 50%	≤ 0.01 µM	
O=C(NCc1ccc(NC(=O)c2cc(F)cc(C(F)(F)F)c2)nc1)c1cccnc1 [compound 84]		> 75%	0.01 to 0.1 µM	IC50 [3]: ≥ 100 nM
O=C(NCc1ccc(NC(=O)c2ccccc2OC(F)(F)F)nc1)c1cccnc1 [compound 85]	○	> 75%		Evaluation on protection against degeneration [5]: B (0.01 µM < B ≤ 0.1 µM)
O=C(NCc1ccc(NC(=O)c2cccc(OC(F)(F)F)c2)nc1)c1cccnc1 [compound 86]		> 75%	0.01 to 0.1 µM	IC50 [3]: ≥ 100 nM
O=C(NCc1ccc(NC(=O)c2ccc(OC(F)(F)F)cc2)nc1)c1cccnc1 [compound 87]	○	> 50%	≤ 0.01 µM	
CCC(C)(C)C(=O)Nc1ccc(CNC(=O)c2cccnc2)cn1 [compound 88]	○	> 50%	0.01 to 0.1 µM	
C#CCOc1ccc(C(=O)Nc2ccc(CNC(=O)c3cccnc3)cn2)cc1 [compound 91]	○	> 50%	≤ 0.01 µM	
O=C(NCCCCCCN1CCN(CCOC(=O)c2cccnc2)CC1)c1cccnc1 [compound 95]	○	> 50%	≤ 0.01 µM	
NCCOCCCCCCCCNC(=O)c1cccnc1 [compound 96]		> 75%	≤ 0.01 µM	IC50 [3]: ≥ 100 nM
NCCOCCOCCCCCCCCNC(=O)c1cccnc1 [compound 97]		> 75%	≤ 0.01 µM	IC50 [3]: ≥ 100 nM
O=C(NCCOCCOc1ccccc1)c1cccnc1 [compound 98]	○	> 10%	0.01 to 0.1 µM	
COc1cccc(OCCOCCNC(=O)c2cccnc2)c1 [compound 99]	○	> 50%	0.01 to 0.1 µM	
O=C(NCCCC1NC(=O)C(CCCNC(=O)c2cccnc2)NC1=O)c1cccnc1 (stereo not drawn) [compound 103]	○	> 10%	0.01 to 0.1 µM	
O=C(NCCCCC1NC(=O)C(CCCCNC(=O)c2cccnc2)NC1=O)c1cccnc1 (stereo not drawn) [compound 104]	○	> 10%	0.1 to 1 µM	
Nc1ncnc2c1ncn2[C@@H]1O[C@H](COP(=O)([O-])OP(=O)(O)OC[C@H]2O[C@@H]([n+]3cccc(C(=O)NCc4ccc(NC(=O)c5ccccc5)nc4)c3)[C@H](O)[C@@H]2O)[C@@H](O)[C@H]1O [compound 105-NAD-like metabolite]				SARM1 inhibitory activity [1]: exhibited stronger activity in this order
O=C(NCc1ccc(NC(=O)c2ccccc2)nc1)c1ccc[n+]([C@@H]2O[C@H](COP(=O)([O-])O)[C@@H](O)[C@H]2O)c1 [compound 105-NMN-like metabolite]				SARM1 inhibitory activity [1]: exhibited stronger activity in this order
O=C(NCc1ccc(NC(=O)c2ccccc2)nc1)c1ccc[n+]([C@@H]2O[C@H](CO)[C@@H](O)[C@H]2O)c1 [compound 105-riboside form]				production of metabolites [6]: confirmed; SARM1 inhibitory activity [1]: exhibited stronger activity in this order
NCCCOCCOCCCNC(=O)c1cccnc1 [compound 106]	○	> 25%	≤ 0.01 µM	
O=C(NCc1ccc(NC(=O)C2CCOCC2)cc1)c1cccnc1 [compound 108]		> 75%	≤ 0.01 µM	IC50 [3]: ≥ 100 nM
O=C(NCc1ccc(NC(=O)C2CCC2)cc1)c1cccnc1 [compound 109]	○	> 75%	≤ 0.01 µM	
O=C(NCc1ccc(NC(=O)c2ccccc2)c(F)c1)c1cccnc1 [compound 110]	○			inhibition at 30 µM ([4]; HEK293, read-out: Evaluation on hSARM1 inhibitory): > 25%; Evaluation on protection against degeneration [5]: A (A ≤ 0.01 µM)
